Laboratory results reported in patent publication US20040087612A1, “Method of increasing lacrimal gland tearing by topical administration of tacrolimus” (priority 2002, published 2004).

Tested on: dogs with naturally occurring keratoconjunctivitis sicca
Test: Schirmer tear quantification in dogs treated topically with tacrolimus suspension
Assay type: in vivo, dog
Details: topical administration to the eye
Text: In the present invention, tacrolimus is typically administered topically as an aqueous ophthalmic suspension that can be in the form of drops or an ointment. While the particular mixture and efficacious concentration of tacrolimus can be varied, one such suspension used in the treatment of a number of dogs included the following: i) Approximately 0.02 percent weight/volume tacrolimus crystals, ii) Approximately 0.2 percent weight/volume hydroxypropyl methylcellulose, iii) Approximately 0.4 percent weight/volume lactose, and iv) Sterile, deionized water mixed with the first three ingredients in an amount sufficient to achieve the above-noted concentrations. The following examples illustrate the effectiveness of the treatment method of the present invention. Specifically, eleven different dogs of varying breeds and ages were treated using the above solution for treatment periods ranging from 20-84 days. The eleven dogs had naturally occurring keratoconjunctivitis sicca. The subject dogs received one drop of the above-described tacrolimus-based suspension topically in the eye, twice a day. Prior to therapy, tear production was measured using standard Schirmer tear quantification. Corneal fibrosis, vascularization and pigmentation were measured using slit lamp biomicroscopy and fundus reflection during indirect ophthalmoscopy. […]

C=CC[C@@H]1/C=C(\C)C[C@H](C)C[C@H](OC)[C@H]2O[C@@](O)(C(=O)C(=O)N3CCCC[C@H]3C(=O)O[C@H](/C(C)=C/[C@@H]3CC[C@@H](O)[C@H](OC)C3)[C@H](C)[C@@H](O)CC1=O)[C@H](C)C[C@@H]2OC [tacrolimus, Tacrolimus]
effect on lacrimal gland tearing: increases lacrimal gland tearing
